Values of other authors in US20150111372A1 (priority 2013, published 2015).
Like-named read-outs stand apart in the source and are kept apart here.

How the values were obtained:
livers of chickens = settings: in vivo

Row | Structure (SMILES) | Solubility, Water (pH 2) | Solubility, Water (pH 5) | levels of arsenic in the livers of chickens (livers of chickens)
1 | O=C(O)CNCP(=O)(O)O [N-(phosphonomethyl)glycine), N-(phosphonomethyl)glycine] | pH 2: 10 g/L | pH 5-9: 1 kg/L | –
2 | O=[N+]([O-])c1cc([As](=O)(O)O)ccc1O [Roxarsone, 4-Hydroxy-3-nitrobenzenearsonic acid] | – | – | elevated (but 'very low') levels
